Results taken from publication PMC8977229 (Journal of molecular biology, 2022).

Target: T1, FraR (Salmonella enterica, UniProt Q8ZLC9)
T1 sequence (Q8ZLC9 1-239): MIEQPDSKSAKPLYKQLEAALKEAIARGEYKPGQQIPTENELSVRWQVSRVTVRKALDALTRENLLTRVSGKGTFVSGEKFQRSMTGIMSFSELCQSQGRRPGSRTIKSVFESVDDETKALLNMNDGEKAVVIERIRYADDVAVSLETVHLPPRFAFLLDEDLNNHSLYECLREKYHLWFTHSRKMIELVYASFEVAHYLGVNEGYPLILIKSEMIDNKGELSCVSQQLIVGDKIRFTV
Assay: online buffer exchange native MS titration
Format: binding

In the case of O=C(O)C[C@H](NCC(=O)[C@@H](O)[C@H](O)[C@H](O)COP(=O)(O)O)C(=O)O [6-P-F-Asp, 6-phosphofructose-aspartate], the Kd is reported as 3.8 ± 0.6 µM.
